In ChEMBL document CHEMBL3352235, “Design, synthesis and biological evaluation of 17-arylmethylamine-17-demethoxygeldanamycin derivatives as potent Hsp90 inhibitors” (Eur J Med Chem, 2014):

Columns and labels:
MDA-MB-231 [1] = assay: cells; settings: Homo sapiens, MDA-MB-231, 72 h
Description: Cytotoxicity against human MDA-MB-231 cells after 72 hrs by MTT assay

LNCaP = assay: cells; settings: Homo sapiens, 72 h
Description: Cytotoxicity against human LNCAP cells after 72 hrs by MTT assay

Mus musculus [2] = assay: Hepatotoxicity in Kunming mouse assessed as serum AST level at 10 mg/kg, iv (reference value: 197.2 +/- 11.2 U/L); format: toxicity, organism-based; parameters: dose 10 mg/kg, route intravenous; settings: in vivo
Mus musculus [3] = assay: Hepatotoxicity in Kunming mouse assessed as serum ALT level at 10 mg/kg, iv (reference value: 60.7 +/- 6.9 U/L); format: toxicity, organism-based; parameters: dose 10 mg/kg, route intravenous; settings: in vivo
MDA-MB-231 [4] = assay: Antitumor activity against human MDA-MB-231 cells xenografted in BALB/c mouse assessed as tumor volume at 10 mg/kg, iv dosed every 3 days for 15 days relative to untreated control; format: functional
[5] = target: Heat shock protein HSP 90-alpha (Homo sapiens, UniProt P07900); assay: Displacement of GA-FITC from human recombinant HSP90alpha ATP-binding site by fluorescence polarization assay
MDA-MB-231 [6] = assay: Antitumor activity against human MDA-MB-231 cells xenografted in BALB/c mouse assessed as reduction in tumor weight at 10 mg/kg, iv dosed every 3 days for 15 days; format: functional; settings: read-out: GI

Row | Structure (SMILES) | IC50 (MDA-MB-231 [1]) | IC50 (LNCaP) | Activity (Mus musculus [2]) | Activity (Mus musculus [3]) | T/C (MDA-MB-231 [4]) | IC50 [5] | inhibition in vivo at 10 mg/kg (MDA-MB-231 [6])
1 | CO[C@H]1/C=C\C=C(/C)C(=O)NC2=CC(=O)C(NCc3ccccc3Cl)=C(C[C@@H](C)C[C@H](OC)[C@H](O)[C@@H](C)/C=C(\C)[C@@H]1OC(N)=O)C2=O | 650 nM | 410 nM | – | – | – | – | –
2 | CO[C@H]1/C=C\C=C(/C)C(=O)NC2=CC(=O)C(NCc3cccc(Cl)c3)=C(C[C@@H](C)C[C@H](OC)[C@H](O)[C@@H](C)/C=C(\C)[C@@H]1OC(N)=O)C2=O | 380 nM | 8500 nM | – | – | – | – | –
3 | CO[C@H]1/C=C\C=C(/C)C(=O)NC2=CC(=O)C(NCc3ccc(Cl)cc3)=C(C[C@@H](C)C[C@H](OC)[C@H](O)[C@@H](C)/C=C(\C)[C@@H]1OC(N)=O)C2=O | 460 nM | 770 nM | – | – | – | – | –
4 | CO[C@H]1/C=C\C=C(/C)C(=O)NC2=CC(=O)C(NCc3ccc(F)cc3)=C(C[C@@H](C)C[C@H](OC)[C@H](O)[C@@H](C)/C=C(\C)[C@@H]1OC(N)=O)C2=O | 630 nM | 2280 nM | – | – | – | – | –
5 | CO[C@H]1/C=C\C=C(/C)C(=O)NC2=CC(=O)C(NCc3ccc(Br)cc3)=C(C[C@@H](C)C[C@H](OC)[C@H](O)[C@@H](C)/C=C(\C)[C@@H]1OC(N)=O)C2=O | 240 nM | > 10000 nM | – | – | – | – | –
6 | CO[C@H]1/C=C\C=C(/C)C(=O)NC2=CC(=O)C(NCc3ccc(I)cc3)=C(C[C@@H](C)C[C@H](OC)[C@H](O)[C@@H](C)/C=C(\C)[C@@H]1OC(N)=O)C2=O | 360 nM | 1360 nM | – | – | – | – | –
7 | CO[C@H]1/C=C\C=C(/C)C(=O)NC2=CC(=O)C(NCc3ccc(F)c(F)c3)=C(C[C@@H](C)C[C@H](OC)[C@H](O)[C@@H](C)/C=C(\C)[C@@H]1OC(N)=O)C2=O | 630 nM | > 10000 nM | – | – | – | – | –
8 | CO[C@H]1/C=C\C=C(/C)C(=O)NC2=CC(=O)C(NCc3cc(F)cc(F)c3)=C(C[C@@H](C)C[C@H](OC)[C@H](O)[C@@H](C)/C=C(\C)[C@@H]1OC(N)=O)C2=O | 350 nM | 1980 nM | – | – | – | – | –
9 | COc1ccccc1CNC1=C2C[C@@H](C)C[C@H](OC)[C@H](O)[C@@H](C)/C=C(\C)[C@H](OC(N)=O)[C@@H](OC)/C=C\C=C(/C)C(=O)NC(=CC1=O)C2=O | 460 nM | > 10000 nM | – | – | – | – | –
10 | COc1cccc(CNC2=C3C[C@@H](C)C[C@H](OC)[C@H](O)[C@@H](C)/C=C(\C)[C@H](OC(N)=O)[C@@H](OC)/C=C\C=C(/C)C(=O)NC(=CC2=O)C3=O)c1 | 880 nM | 2670 nM | – | – | – | – | –
11 | COc1ccc(CNC2=C3C[C@@H](C)C[C@H](OC)[C@H](O)[C@@H](C)/C=C(\C)[C@H](OC(N)=O)[C@@H](OC)/C=C\C=C(/C)C(=O)NC(=CC2=O)C3=O)cc1 | 180 nM | 7810 nM | – | – | – | – | –
12 | COc1ccc(CNC2=C3C[C@@H](C)C[C@H](OC)[C@H](O)[C@@H](C)/C=C(\C)[C@H](OC(N)=O)[C@@H](OC)/C=C\C=C(/C)C(=O)NC(=CC2=O)C3=O)c(OC)c1 | 330 nM | 3110 nM | – | – | – | – | –
13 | COc1ccc(CNC2=C3C[C@@H](C)C[C@H](OC)[C@H](O)[C@@H](C)/C=C(\C)[C@H](OC(N)=O)[C@@H](OC)/C=C\C=C(/C)C(=O)NC(=CC2=O)C3=O)cc1OC | 360 nM | > 10000 nM | – | – | – | – | –
14 | COc1cc(CNC2=C3C[C@@H](C)C[C@H](OC)[C@H](O)[C@@H](C)/C=C(\C)[C@H](OC(N)=O)[C@@H](OC)/C=C\C=C(/C)C(=O)NC(=CC2=O)C3=O)cc(OC)c1OC | 640 nM | 2450 nM | – | – | – | – | –
15 | COc1cc(CNC2=C3C[C@@H](C)C[C@H](OC)[C@H](O)[C@@H](C)/C=C(\C)[C@H](OC(N)=O)[C@@H](OC)/C=C\C=C(/C)C(=O)NC(=CC2=O)C3=O)ccc1O | 160 nM | 140 nM | – | – | – | – | –
16 | CO[C@H]1/C=C\C=C(/C)C(=O)NC2=CC(=O)C(NCc3ccc(O)cc3)=C(C[C@@H](C)C[C@H](OC)[C@H](O)[C@@H](C)/C=C(\C)[C@@H]1OC(N)=O)C2=O | 170 nM | 8480 nM | – | – | – | – | –
17 | CO[C@H]1/C=C\C=C(/C)C(=O)NC2=CC(=O)C(NCc3ccccc3C)=C(C[C@@H](C)C[C@H](OC)[C@H](O)[C@@H](C)/C=C(\C)[C@@H]1OC(N)=O)C2=O | 1670 nM | 5700 nM | – | – | – | – | –
18 | CO[C@H]1/C=C\C=C(/C)C(=O)NC2=CC(=O)C(NCc3cccc(C)c3)=C(C[C@@H](C)C[C@H](OC)[C@H](O)[C@@H](C)/C=C(\C)[C@@H]1OC(N)=O)C2=O | 800 nM | 5230 nM | – | – | – | – | –

Row | Structure (SMILES) | IC50 (MDA-MB-231 [1]) | IC50 (LNCaP) | Activity (Mus musculus [2]) | Activity (Mus musculus [3]) | T/C (MDA-MB-231 [4]) | IC50 [5] | inhibition in vivo at 10 mg/kg (MDA-MB-231 [6])
19 | CO[C@H]1/C=C\C=C(/C)C(=O)NC2=CC(=O)C(NCc3ccc(C)cc3)=C(C[C@@H](C)C[C@H](OC)[C@H](O)[C@@H](C)/C=C(\C)[C@@H]1OC(N)=O)C2=O | 490 nM | > 10000 nM | – | – | – | – | –
20 | CO[C@H]1/C=C\C=C(/C)C(=O)NC2=CC(=O)C(NCc3cccc(N)c3)=C(C[C@@H](C)C[C@H](OC)[C@H](O)[C@@H](C)/C=C(\C)[C@@H]1OC(N)=O)C2=O | 560 nM | 180 nM | – | – | – | – | –
21 | CO[C@H]1/C=C\C=C(/C)C(=O)NC2=CC(=O)C(NCc3ccc(N)cc3)=C(C[C@@H](C)C[C@H](OC)[C@H](O)[C@@H](C)/C=C(\C)[C@@H]1OC(N)=O)C2=O | 170 nM | 50 nM | 215.8 U/L | 74.9 U/L | 55% | 890 nM | 46%
22 | CO[C@H]1/C=C\C=C(/C)C(=O)NC2=CC(=O)C(NCc3cccc(C#N)c3)=C(C[C@@H](C)C[C@H](OC)[C@H](O)[C@@H](C)/C=C(\C)[C@@H]1OC(N)=O)C2=O | 450 nM | 1800 nM | – | – | – | – | –
23 | CO[C@H]1/C=C\C=C(/C)C(=O)NC2=CC(=O)C(NCc3ccc(C#N)cc3)=C(C[C@@H](C)C[C@H](OC)[C@H](O)[C@@H](C)/C=C(\C)[C@@H]1OC(N)=O)C2=O | 250 nM | 480 nM | – | – | – | – | –
24 | CO[C@H]1/C=C\C=C(/C)C(=O)NC2=CC(=O)C(NCc3ccc(S(C)(=O)=O)cc3)=C(C[C@@H](C)C[C@H](OC)[C@H](O)[C@@H](C)/C=C(\C)[C@@H]1OC(N)=O)C2=O | 350 nM | 850 nM | – | – | – | – | –
25 | CO[C@H]1/C=C\C=C(/C)C(=O)NC2=CC(=O)C(NCc3ccc(S(N)(=O)=O)cc3)=C(C[C@@H](C)C[C@H](OC)[C@H](O)[C@@H](C)/C=C(\C)[C@@H]1OC(N)=O)C2=O | 1060 nM | 960 nM | – | – | – | – | –
26 | COC(=O)c1ccc(CNC2=C3C[C@@H](C)C[C@H](OC)[C@H](O)[C@@H](C)/C=C(\C)[C@H](OC(N)=O)[C@@H](OC)/C=C\C=C(/C)C(=O)NC(=CC2=O)C3=O)cc1 | 130 nM | 1030 nM | – | – | – | – | –
27 | CCOC(=O)c1ccc(CNC2=C3C[C@@H](C)C[C@H](OC)[C@H](O)[C@@H](C)/C=C(\C)[C@H](OC(N)=O)[C@@H](OC)/C=C\C=C(/C)C(=O)NC(=CC2=O)C3=O)cc1 | 130 nM | 1340 nM | – | – | – | – | –
28 | CO[C@H]1/C=C\C=C(/C)C(=O)NC2=CC(=O)C(NCc3ccc(OC(F)(F)F)cc3)=C(C[C@@H](C)C[C@H](OC)[C@H](O)[C@@H](C)/C=C(\C)[C@@H]1OC(N)=O)C2=O | 180 nM | 570 nM | – | – | – | – | –
29 | CO[C@H]1/C=C\C=C(/C)C(=O)NC2=CC(=O)C(NCc3cccc([N+](=O)[O-])c3)=C(C[C@@H](C)C[C@H](OC)[C@H](O)[C@@H](C)/C=C(\C)[C@@H]1OC(N)=O)C2=O | 690 nM | 340 nM | – | – | – | – | –
30 | CO[C@H]1/C=C\C=C(/C)C(=O)NC2=CC(=O)C(NCc3ccsc3)=C(C[C@@H](C)C[C@H](OC)[C@H](O)[C@@H](C)/C=C(\C)[C@@H]1OC(N)=O)C2=O | 400 nM | 680 nM | – | – | – | – | –
31 | CO[C@H]1/C=C\C=C(/C)C(=O)NC2=CC(=O)C(NCc3cncn3C)=C(C[C@@H](C)C[C@H](OC)[C@H](O)[C@@H](C)/C=C(\C)[C@@H]1OC(N)=O)C2=O | 410 nM | 440 nM | – | – | – | – | –
32 | CO[C@H]1/C=C\C=C(/C)C(=O)NC2=CC(=O)C(NCc3ccc(Cl)nc3)=C(C[C@@H](C)C[C@H](OC)[C@H](O)[C@@H](C)/C=C(\C)[C@@H]1OC(N)=O)C2=O | 80 nM | 510 nM | 173.6 U/L | 79.4 U/L | 40% | 1040 nM | 50%
33 | CO[C@H]1/C=C\C=C(/C)C(=O)NC2=CC(=O)C(NCc3ccc(C(F)(F)F)nc3)=C(C[C@@H](C)C[C@H](OC)[C@H](O)[C@@H](C)/C=C(\C)[C@@H]1OC(N)=O)C2=O | 100 nM | 350 nM | 164.1 U/L | 61 U/L | 31% | 430 nM | 63%
34 | COC1=C2C[C@@H](C)C[C@H](OC)[C@H](O)[C@@H](C)/C=C(\C)[C@H](OC(N)=O)[C@@H](OC)/C=C\C=C(/C)C(=O)NC(=CC1=O)C2=O [GELDANAMYCIN] | – | – | 317.2 U/L | 273 U/L | – | – | –
35 | C=CCNC1=C2C[C@@H](C)C[C@H](OC)[C@H](O)[C@@H](C)/C=C(\C)[C@H](OC(N)=O)[C@@H](OC)/C=C\C=C(/C)C(=O)NC(=CC1=O)C2=O [TANESPIMYCIN] | – | 160 nM | 237.4 U/L | 66.6 U/L | 35% | – | 57%
